The assay deals with T1, Human IP6K1 (Homo sapiens, UniProt Q92551).
T1 construct: GST (N, cleaved yes); made in house; host or cells: C43 E. coli, pGEX-6P-2
The assay is described as follows: IP6K1 high-throughput screen of the Sigma LOPAC (ADP-Glo Max, single point).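 Also: final compound concentration 10µM in 5% DMSO.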 In kind it is biochemical. On the technique in general: In ADP-Glo the light output rises with the ADP produced.

[1] abbreviates: Sigma LOPAC single-point screen, ADP-Glo Max raw signal per well.
[2] abbreviates: Sigma LOPAC single-point screen, Z-score from plate average and StDev.
Where [3] appears, read: LOPAC single-point screen, ADP-Glo Max luminescence raw signal per well.
Setting [4] is: LOPAC single-point screen, Z-score from plate average and StDev.
The mark [5] stands for this setting: LOPAC single-point screen, Z-score relative to plate average and StDev.
[6] abbreviates: LOPAC single-point screen, ADP-Glo Max raw signal per well.
The mark [7] stands for this setting: LOPAC single-point screen, Z-score from raw signal with plate average and StDev.
The mark [8] stands for this setting: LOPAC single-point screen, Z-score against plate average and StDev.

Where a name gives a salt, the structure may show the parent alone.

T1 sequence (Q92551 whole entry): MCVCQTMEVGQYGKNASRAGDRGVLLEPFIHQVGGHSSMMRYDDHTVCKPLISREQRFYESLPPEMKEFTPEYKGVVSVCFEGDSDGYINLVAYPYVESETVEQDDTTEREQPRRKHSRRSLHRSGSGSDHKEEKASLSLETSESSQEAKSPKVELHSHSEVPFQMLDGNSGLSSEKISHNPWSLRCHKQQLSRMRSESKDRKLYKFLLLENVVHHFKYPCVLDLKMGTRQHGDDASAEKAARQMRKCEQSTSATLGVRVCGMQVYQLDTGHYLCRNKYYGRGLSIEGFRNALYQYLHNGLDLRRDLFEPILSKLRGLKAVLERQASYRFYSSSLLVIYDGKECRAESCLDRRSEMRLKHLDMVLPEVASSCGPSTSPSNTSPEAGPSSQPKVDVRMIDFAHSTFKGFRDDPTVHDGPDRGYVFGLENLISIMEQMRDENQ

Take `COc1ccccc1CNCCCCCCNCCCCCCCCNCCCCCCNCc1ccccc1OC.Cl.Cl.Cl.Cl` [Methoctramine tetrahydrochloride]: the “Raw Signal” value under setting [1] was determined as 56889. This molecule gave a Z-score under setting [2] of 0.4193.

With `O=C1NC(=O)C(c2ccccc2)(c2ccccc2)N1` [Phenytoin sodium], under setting [3], the “Raw Signal” value is on record as 66782. Further, the Z-score under setting [4] is reported as 2.359.

Consider `NC(N)=NCc1cccc(I)c1.NC(N)=NCc1cccc(I)c1.O=S(=O)(O)O` [m-Iodobenzylguanidine hemisulfate], for which the “Raw Signal” value under setting [1] is reported as 60474. Under setting [2], this molecule returned a Z-score of 1.022.

Turning to `OC[C@H]1O[C@@H](n2cnc3c(NCCc4ccccc4)ncnc32)[C@H](O)[C@@H]1O` [N6-2-Phenylethyladenosine], the “Raw Signal” value under setting [3] is reported as 52095. This molecule also had a Z-score under setting [5] of -0.7633.

As to `O=c1c(-c2ccc(O)cc2)coc2cc(O)cc(O)c12` [Genistein], the “Raw Signal” value under setting [6] was found to be 53223. In addition, under setting [7], the Z-score is -0.3948.

For `C#CC(N)CCC(=O)O` (stereo not drawn) [gamma-Acetylinic GABA], under setting [3], the “Raw Signal” value is 54991. Under setting [5], the Z-score is given as -0.5147.

On to `CCc1ccccc1OC[C@@H](O)CN[C@H]1CCCc2ccccc21.O=C(O)C(=O)O` [SR 59230A oxalate], for which the “Raw Signal” value under setting [6] is listed as 55204. Also, the Z-score under setting [7] is -0.1593.

For `CCC(C)N(C)C(=O)c1cc2ccccc2c(-c2ccccc2Cl)n1` (stereo not drawn) [PK 11195], the “Raw Signal” value under setting [3] came out at 54307. Under setting [5], this molecule yielded a Z-score of -0.6351.

Take `CC1CN(S(=O)(=O)c2cccc3cnccc23)CCN1.Cl.Cl` (stereo not drawn): the “Raw Signal” value under setting [6] came to 53944. The Z-score under setting [8] is reported as -0.07553.

In the case of `COc1ccc2[nH]cc(CCN)c2c1.Cl` [O-Methylserotonin hydrochloride], the “Raw Signal” value under setting [6] was 53655. Besides, under setting [7], the Z-score was -0.1241.

For the molecule `Cl.OC1CCCCC1N1CCC(c2ccccc2)CC1` (racemic) [(±)-Vesamicol hydrochloride], the “Raw Signal” value under setting [3] worked out at 53363. Under setting [5], this molecule gave a Z-score of -0.5169.

As for `Br.CCCN(CCC)[C@@H]1CCc2cccc(O)c2C1` [R-(+)-8-Hydroxy-DPAT hydrobromide], the “Raw Signal” value under setting [1] came to 58179. Besides, the Z-score under setting [2] was found to be 0.6117.

For the molecule `CC(=O)OCC1=C(C(=O)O)N2C(=O)[C@@H](NC(=O)CSc3ccncc3)[C@H]2SC1` [Cephapirin sodium], the “Raw Signal” value under setting [3] was determined as 53491. This molecule also showed a Z-score under setting [5] of -0.7789.

`OC[C@H]1NC[C@H](O)[C@@H](O)[C@@H]1O` [1-Deoxynojirimycin hydrochloride]: the “Raw Signal” value under setting [1] was 59013. The Z-score under setting [2] was determined as 0.7811.

Consider `CC(=O)Oc1ccccc1C(=O)O` [Acetylsalicylic acid], for which, under setting [3], the “Raw Signal” value was found to be 52950. The molecule also showed a Z-score under setting [5] of -0.8741.

As to `Nc1ncn([C@@H]2O[C@H](CO)[C@@H](O)[C@H]2O)c(=O)n1` [5-azacytidine], the “Raw Signal” value under setting [3] turned out to be 54885. Under setting [5], this molecule came in with a Z-score of -0.5333.

Turning to `CC(C(O)c1ccc(O)cc1)N1CCC(Cc2ccccc2)CC1.CC(C(O)c1ccc(O)cc1)N1CCC(Cc2ccccc2)CC1.O=C(O)C(O)C(O)C(=O)O` (stereo not drawn) [Ifenprodil tartrate], the “Raw Signal” value under setting [6] is 56294. The molecule also came in with a Z-score under setting [8] of 0.3193.

With `CC(=O)[C@H]1CC[C@H]2[C@@H]3CC=C4C[C@@H](OS(=O)(=O)[O-])CC[C@]4(C)[C@H]3CC[C@]12C.[Na+]` [Pregnenolone sulfate sodium], the “Raw Signal” value under setting [3] amounted to 62981. In addition, the Z-score under setting [4] amounted to 1.352.

As to `COc1ccc(CCN(C)CCCC(C#N)(c2ccc(OC)c(OC)c2)C(C)C)cc1OC.Cl` (racemic) [(±)-Verapamil hydrochloride], the “Raw Signal” value under setting [3] came out at 63315. Under setting [4], this molecule returned a Z-score of 1.417.

For the molecule `Oc1cc(-c2ccccc2)nc2nc(Cl)ccc12`, under setting [6], the “Raw Signal” value came out at 57826. Under setting [8], the Z-score is -0.01534.

Consider SKF 83565 hydrobromide, for which, under setting [1], the “Raw Signal” value is 61448. Moreover, the Z-score under setting [2] was 1.054.

`CCCCCCCCCCCCC/C=C/[C@@H](O)[C@@H](N)CO` [Sphingosine]: the “Raw Signal” value under setting [3] is on record as 64012. The same molecule came in with a Z-score under setting [4] of 1.552.

As for `C[C@@](Cc1ccc(O)c(O)c1)(NN)C(=O)O` [S-(-)-Carbidopa], the “Raw Signal” value under setting [6] is 55065. Also, the Z-score under setting [8] is reported as -0.02072.

For the molecule `O=c1[nH]c(=O)n([C@H]2C[C@H](O)[C@@H](CO)O2)cc1/C=C/Br` [(E)-5-(2-Bromovinyl)-2-deoxyuridine], the “Raw Signal” value under setting [6] came to 57888. Also, the Z-score under setting [8] is given as -0.004421.

As to `Cl.NCCc1ccc(S(=O)(=O)F)cc1`, the “Raw Signal” value under setting [6] was 58918. In addition, the Z-score under setting [8] worked out at 0.177.

For the molecule `COCCc1ccc(OCC(O)CNC(C)C)cc1.O=C(O)C(O)C(O)C(=O)O` (racemic) [(±)-Metoprolol (+)-tartrate], the “Raw Signal” value under setting [1] worked out at 61286. Under setting [2], the Z-score was 1.158.

Turning to `CC1CCN(CC[C@H]2CCCN2S(=O)(=O)c2cccc(O)c2)CC1.Cl` [SB 269970 hydrochloride], the “Raw Signal” value under setting [6] is on record as 57058. This molecule registered a Z-score under setting [8] of 0.2009.

On to `CCN(CC)CCOC(=O)c1ccc(N)cc1` [Procaine hydrochloride], for which the “Raw Signal” value under setting [1] is 61379. Further, the Z-score under setting [2] is given as 1.04.

`CCOC(=O)c1ncn2c1CN(C)C(=O)c1cc(F)ccc1-2` [Flumazenil]: the “Raw Signal” value under setting [3] is on record as 52634. The molecule further yielded a Z-score under setting [5] of -0.5144.

Take `CC(=O)c1ccc(S(=O)(=O)NC(=O)NC2CCCCC2)cc1` [Acetohexamide]: the “Raw Signal” value under setting [1] was found to be 64165. Under setting [2], this molecule showed a Z-score of 1.101.

Turning to `COc1ccc2c(c1)c(CC(=O)O)c(C)n2Cc1ccc(Cl)cc1`, the “Raw Signal” value under setting [1] came to 64773. For the same molecule, under setting [2], the Z-score is given as 1.208.

As for `O=[N+]([O-])c1ccc(CSc2ncnc3c2ncn3[C@@H]2O[C@H](CO)[C@@H](O)[C@H]2O)cc1` [S-(4-Nitrobenzyl)-6-thioinosine], the “Raw Signal” value under setting [3] is recorded as 50827. Besides, the Z-score under setting [5] is recorded as -0.5993.

As to `N=C(N)c1ccccc1` [Benzamidine hydrochloride], the “Raw Signal” value under setting [6] was 57181. Under setting [7], this molecule had a Z-score of -0.1289.

Turning to `CS(=O)(=O)O.Cc1c(C(=O)c2cccc3ccccc23)c2cccc3c2n1[C@H](CN1CCOCC1)CO3` [(R)-(+)-WIN 55,212-2 mesylate], under setting [1], the “Raw Signal” value came out at 62593. Further, the Z-score under setting [2] was determined as 1.276.

Consider `O=C(Nc1ccccc1)c1cc([N+](=O)[O-])ccc1Cl` [GW9662], for which, under setting [6], the “Raw Signal” value is 52726. Under setting [7], this molecule showed a Z-score of -0.2802.

As for `CN1CC[C@@]23CCCC[C@@H]2[C@@H]1Cc1ccc(O)cc13.O=C(O)C(O)C(O)C(=O)O` [Dextrorphan D-tartrate], the “Raw Signal” value under setting [3] is 63036. Also, the Z-score under setting [4] came to 1.598.

Turning to `OCc1ccc(-c2nn(Cc3ccccc3)c3ccccc23)o1` [YC-1], the “Raw Signal” value under setting [6] amounted to 55059. Besides, the Z-score under setting [7] is reported as -0.1874.

`CC(C)NCC(O)c1cc(O)cc(O)c1.CC(C)NCC(O)c1cc(O)cc(O)c1.O=S(=O)(O)O` (stereo not drawn) [Metaproterenol hemisulfate]: the “Raw Signal” value under setting [6] was determined as 55094. Under setting [8], this molecule registered a Z-score of 0.1177.

As to `CN1CCN2c3ccccc3Cc3ccccc3C2C1` (stereo not drawn) [Mianserin hydrochloride], the “Raw Signal” value under setting [3] worked out at 51451. Under setting [5], the Z-score was -0.4944.

(Values after paper PMC5706701, “Development of a homogenous high-throughput assay for inositol hexakisphosphate kinase 1 activity” (PLoS ONE, 2017).)
